HELM strings list units from the 5' end as sugar, base in round brackets, then linkage (d deoxyribose, r ribose, m 2'-O-methyl, p phosphodiester). Strings are as the collection lists them; they lack the last nucleoside at the 3' end of the tested compound. [moe] = 2'-O-(2-methoxyethyl) (MOE); [sp] = phosphorothioate linkage; [m5C] = 5-methylcytosine

The data set deals with GFAP. Kind of data set: mouse, dose not given. The following applies: ASO.
Take “RNA1{[moe]([m5C])[sp].[moe](G)p.[moe](G)p.[moe]([m5C])p.[moe](T)[sp].d([m5C])[sp].d(T)[sp].d([m5C])[sp].d(T)[sp].d([m5C])[sp].d(A)[sp].d(T)[sp].d([m5C])[sp].d(T)[sp].d(G)[sp].[moe](T)p.[moe]([m5C])p.[moe](A)[sp].[moe](A)}$$$$ (last 3' nucleoside missing)”: the 3 h FOB score stood at 2 score 0-7.
In the case of “RNA1{[moe]([m5C])[sp].[moe](G)p.[moe](T)p.[moe](A)p.[moe](T)[sp].d(T)[sp].d(G)[sp].d(T)[sp].d(G)[sp].d(A)[sp].d(G)[sp].d(G)[sp].d([m5C])[sp].d(T)[sp].d(T)[sp].[moe](T)p.[moe](T)p.[moe](G)[sp].[moe](A)}$$$$ (last 3' nucleoside missing)” it was 7 score 0-7; in that of “RNA1{[moe]([m5C])[sp].[moe](G)p.[moe](T)p.[moe](G)p.[moe](T)[sp].d([m5C])[sp].d(A)[sp].d(G)[sp].d([m5C])[sp].d([m5C])[sp].d([m5C])[sp].d(T)[sp].d(G)[sp].d(A)[sp].d(G)[sp].[moe]([m5C])p.[moe](A)p.[moe]([m5C])[sp].[moe]([m5C])}$$$$ (last 3' nucleoside missing)”, 2 score 0-7; in that of “RNA1{[moe]([m5C])[sp].[moe](G)p.[moe](T)p.[moe]([m5C])p.[moe](A)[sp].d([m5C])[sp].d(A)[sp].d(T)[sp].d(T)[sp].d([m5C])[sp].d(A)[sp].d([m5C])[sp].d(T)[sp].[moe](A)p.[moe](A)p.[moe](T)[sp].[moe](A)}$$$$ (last 3' nucleoside missing)”, 0 score 0-7.
The substance “RNA1{[moe]([m5C])[sp].[moe](G)p.[moe](T)p.[moe]([m5C])p.[moe](A)p.[moe]([m5C])p.d(A)[sp].d(T)[sp].d(T)[sp].d([m5C])[sp].d(A)[sp].d([m5C])[sp].d(T)[sp].d(A)[sp].d(A)[sp].d(T)[sp].[moe](A)p.[moe](T)[sp].[moe](T)}$$$$ (last 3' nucleoside missing)” displayed a 3 h FOB score of 0 score 0-7.
“RNA1{[moe]([m5C])[sp].[moe](G)p.[moe](T)p.[moe]([m5C])p.[moe](A)p.d([m5C])[sp].d(A)[sp].d(T)[sp].d(T)[sp].d([m5C])[sp].d(A)[sp].d([m5C])[sp].d(T)[sp].d(A)[sp].d(A)[sp].[moe](T)p.[moe](A)p.[moe](T)[sp].[moe](T)}$$$$ (last 3' nucleoside missing)” showed a 3 h FOB score of 0 score 0-7.
In the case of “RNA1{[moe]([m5C])[sp].[moe](G)p.[moe](T)p.[moe]([m5C])p.d(A)[sp].d([m5C])[sp].d(A)[sp].d(T)[sp].d(T)[sp].d([m5C])[sp].d(A)[sp].d([m5C])[sp].d(T)[sp].d(A)[sp].[moe](A)p.[moe](T)p.[moe](A)p.[moe](T)[sp].[moe](T)}$$$$ (last 3' nucleoside missing)” it was 0 score 0-7.
The value for “RNA1{[moe]([m5C])[sp].[moe](G)p.[moe]([m5C])p.[moe](A)p.[moe](G)[sp].d([m5C])[sp].d(A)[sp].d(T)[sp].d(T)[sp].d(T)[sp].d(G)[sp].d(T)[sp].d([m5C])[sp].d(T)[sp].d(T)[sp].[moe](T)p.[moe](A)p.[moe](T)[sp].[moe](T)}$$$$ (last 3' nucleoside missing)” was 5 score 0-7.
In the case of “RNA1{[moe]([m5C])[sp].[moe](T)p.[moe](A)p.[moe](G)p.[moe](T)p.[moe]([m5C])p.d(A)[sp].d(G)[sp].d([m5C])[sp].d([m5C])[sp].d(T)[sp].d(G)[sp].d(G)[sp].d(T)[sp].d(T)[sp].d(A)[sp].[moe](G)p.[moe]([m5C])[sp].[moe]([m5C])}$$$$ (last 3' nucleoside missing)” it was 4 score 0-7; in that of “RNA1{[moe]([m5C])[sp].[moe](T)p.[moe](A)p.[moe](G)p.[moe](T)p.d([m5C])[sp].d(A)[sp].d(G)[sp].d([m5C])[sp].d([m5C])[sp].d(T)[sp].d(G)[sp].d(G)[sp].d(T)[sp].d(T)[sp].[moe](A)p.[moe](G)p.[moe]([m5C])[sp].[moe]([m5C])}$$$$ (last 3' nucleoside missing)”, 2 score 0-7.
In turn, “RNA1{[moe]([m5C])[sp].[moe](T)p.[moe](A)p.[moe](G)p.d(T)[sp].d([m5C])[sp].d(A)[sp].d(G)[sp].d([m5C])[sp].d([m5C])[sp].d(T)[sp].d(G)[sp].d(G)[sp].d(T)[sp].[moe](T)p.[moe](A)p.[moe](G)p.[moe]([m5C])[sp].[moe]([m5C])}$$$$ (last 3' nucleoside missing)” showed a 3 h FOB score of 4 score 0-7.
The substance “RNA1{[moe]([m5C])[sp].[moe](T)p.[moe](G)p.[moe]([m5C])p.[moe](T)[sp].d([m5C])[sp].d(T)[sp].d(T)[sp].d(T)[sp].d([m5C])[sp].d([m5C])[sp].d([m5C])[sp].d(T)[sp].d([m5C])[sp].d(A)[sp].[moe]([m5C])p.[moe](T)p.[moe](T)[sp].[moe](T)}$$$$ (last 3' nucleoside missing)” registered a 3 h FOB score of 0 score 0-7.
The value for “RNA1{[moe]([m5C])[sp].[moe](T)p.[moe](G)p.[moe]([m5C])p.[moe]([m5C])[sp].d(A)[sp].d(T)[sp].d(T)[sp].d(T)[sp].d(A)[sp].d(T)[sp].d([m5C])[sp].d(T)[sp].[moe](G)p.[moe](T)p.[moe](G)[sp].[moe]([m5C])}$$$$ (last 3' nucleoside missing)” was 1 score 0-7; that for “RNA1{[moe]([m5C])[sp].[moe](T)p.[moe](G)p.[moe]([m5C])p.[moe]([m5C])p.[moe](A)p.d(T)[sp].d(T)[sp].d(T)[sp].d(A)[sp].d(T)[sp].d([m5C])[sp].d(T)[sp].d(G)[sp].d(T)[sp].d(G)[sp].[moe]([m5C])p.[moe](T)[sp].[moe](T)}$$$$ (last 3' nucleoside missing)” was 1 score 0-7; that for “RNA1{[moe]([m5C])[sp].[moe](T)p.[moe](G)p.[moe]([m5C])p.[moe]([m5C])p.d(A)[sp].d(T)[sp].d(T)[sp].d(T)[sp].d(A)[sp].d(T)[sp].d([m5C])[sp].d(T)[sp].d(G)[sp].d(T)[sp].[moe](G)p.[moe]([m5C])p.[moe](T)[sp].[moe](T)}$$$$ (last 3' nucleoside missing)” was 2 score 0-7.
Consider “RNA1{[moe]([m5C])[sp].[moe](T)p.[moe](T)p.[moe](G)p.[moe](G)[sp].d(A)[sp].d([m5C])[sp].d(T)[sp].d([m5C])[sp].d([m5C])[sp].d(T)[sp].d(T)[sp].d(A)[sp].d(A)[sp].d(T)[sp].[moe](G)p.[moe](A)p.[moe]([m5C])[sp].[moe]([m5C])}$$$$ (last 3' nucleoside missing)”, for which the 3 h FOB score was 0 score 0-7.
The value for “RNA1{[moe]([m5C])[sp].[moe](T)p.[moe](T)p.[moe](G)p.[moe](T)p.d(G)[sp].d(A)[sp].d(T)[sp].d(T)[sp].d(T)[sp].d(T)[sp].d([m5C])[sp].d([m5C])[sp].d([m5C])[sp].d([m5C])[sp].[moe](G)p.[moe](T)p.[moe]([m5C])[sp].[moe](T)}$$$$ (last 3' nucleoside missing)” was 3 score 0-7; that for “RNA1{[moe]([m5C])[sp].[moe](T)p.[moe](T)p.[moe](G)p.d(T)[sp].d(G)[sp].d(A)[sp].d(T)[sp].d(T)[sp].d(T)[sp].d(T)[sp].d([m5C])[sp].d([m5C])[sp].d([m5C])[sp].[moe]([m5C])p.[moe](G)p.[moe](T)p.[moe]([m5C])[sp].[moe](T)}$$$$ (last 3' nucleoside missing)” was 0 score 0-7.

The values are drawn from the OligoGym collection.
